{"source": "patent US6706855B1", "about": "“Antimicrobial polymer” (Avecia Limited, priority 1999, dated 2004)", "key": {"[1]": {"system": "Candida albicans NCYC 10231", "assay": "Minimum Inhibitory Concentration (MIC) against Candida albicans", "format": "cell-based", "conditions": "Fungi", "experimental": "(§1) The Minimum Inhibitory Concentration (MIC) against a range of fungi and bacteria were determined for each of the antimicrobial copolymers prepared in Examples 1 to 4 and Comparative Example A. The MIC results are shown in Table 3: […]"}, "[2]": {"system": "Pseudomonas aeruginosa NCIB 10421", "assay": "Minimum Inhibitory Concentration (MIC) against Pseudomonas aeruginosa", "format": "cell-based", "conditions": "Bacteria", "experimental": "as §1"}, "[3]": {"system": "Penicillium funiculosum IMI 114933", "assay": "Minimum Inhibitory Concentration (MIC) against Penicillium funiculosum", "format": "cell-based", "conditions": "Fungi", "experimental": "as §1"}, "[4]": {"system": "Staphylococcus aureus NCIB 9518", "assay": "Minimum Inhibitory Concentration (MIC) against Staphylococcus aureus", "format": "cell-based", "conditions": "Bacteria", "experimental": "as §1"}, "[5]": {"system": "Escherichia coli NCIB 9132", "assay": "Minimum Inhibitory Concentration (MIC) against Escherichia coli", "format": "cell-based", "conditions": "Bacteria", "experimental": "as §1"}, "[6]": {"system": "a range of fungi and bacteria", "assay": "MIC against a range of fungi and bacteria, overall statement", "format": "cell-based", "conditions": "summary of Table 3; compared to Comparative Example A or to the copolymers", "experimental": "as §1"}, "[7]": {"system": "Klebsiella pneumoniae ATCC 4352", "assay": "Minimum Inhibitory Concentration (MIC) against Klebsiella pneumoniae", "format": "cell-based", "conditions": "Bacteria", "experimental": "as §1"}, "[8]": {"system": "Pseudomonas fluorescens (with Lux AB gene) our ref D481", "assay": "Minimum Inhibitory Concentration (MIC) against Pseudomonas fluorescens", "format": "cell-based", "conditions": "Bacteria", "experimental": "as §1"}, "[9]": {"system": "Bacillus subtilis NCIB 1650", "assay": "Minimum Inhibitory Concentration (MIC) against Bacillus subtilis", "format": "cell-based", "conditions": "Bacteria", "experimental": "as §1"}}}
{"smiles": "NCCCCCCNc1ccc2c3c(cccc13)C(=O)N(CCCCCCN)C2=O", "note": "[Marker 1, N-(6-aminohexyl)-4-(6-aminohexylamino)-1,8-naphthalimide]", "values": [{"measurement": "MIC Ca", "setting": "[1]", "value": 999}, {"measurement": "MIC Psa", "setting": "[2]", "value": 999}, {"measurement": "MIC Pp", "setting": "[3]", "value": 999}, {"measurement": "MIC Sa", "setting": "[4]", "value": 32}, {"measurement": "MIC Ec", "setting": "[5]", "value": 500}, {"measurement": "antimicrobial effect (MIC, in words)", "setting": "[6]", "value": "little or no antimicrobial effect"}, {"measurement": "MIC K.pn", "setting": "[7]", "value": 999}, {"measurement": "MIC Ps.fl", "setting": "[8]", "value": 500}, {"measurement": "melting point", "value": "113.6 to 114.9", "unit": "°C"}, {"measurement": "MIC Bs", "setting": "[9]", "value": 500}]}
